We go through two molecules from patent publication US20010032339A1, “Chaperone suppression of ataxin-1 aggregation and altered subcellular proteasome localization imply protein misfolding in SCA1” (priority 1998, published 2001).

Common to all, as to assay type: cell-based, human
The subject of data set [1] is GFP-ataxin-1 [82Q] nuclear aggregates in HeLa cells. Nature of the data set: Effect of proteasome inhibitors on aggregation of GFP-ataxin-1 [82Q] in transfected HeLa cells. As to conditions: HeLa cells transfected with GFP-ataxin-1 [82Q]. The source says: Full length mutant ataxin-1 [82Q] readily aggregates in subnuclear structures when overexpressed in tissue culture cells and these aggregates alter the staining pattern of the 20S proteasome. […] The effect of proteasome inhibitors on the aggregation of GFP-ataxin-1 [82Q] in transfected HeLa cells was examined. The protease inhibitor clasto-Lactacystin β-lactone specifically prevents protein breakdown by the proteasome, without inhibiting lysosomal degradation. […] In contrast to the 71% of mock treated cells which had nuclear aggregates, 97% of the proteasome inhibitor treated cells were aggregate positive (FIGS. 7A through 7D). […] Therefore, proteasome inhibitor treatment led to an increase in both frequency and size of nuclear aggregates. This enhancement is most likely due to the increased nuclear concentration of misfolded proteins which are not being properly degraded.

Data set [2] relates to ataxin-1 [92Q] in HeLa cells. The experiment in a line: Immunoblot of steady-state levels of ataxin-1 in detergent soluble and insoluble fractions. The conditions noted are these: HeLa cells expressing ataxin-1 [92Q], versus DMSO control. How it is done:
The effect of β-lactone on the steady-state levels of ataxin-1 was assessed by immunoblot analysis (FIGS. 8A through 8D). HeLa cells expressing mutant ataxin-1 [92Q] were treated with either different concentrations of β-lactone or DMSO (dimethyl sulfoxide) control. Cells lysates were separated into detergent soluble and insoluble fractions and then immunoblotted with ataxin-1 antibody. […] Increasing the protein concentration per lane and extending the exposure time, a high molecular weight smear punctated by discrete bands is evident. […] Additionally, the higher molecular weight smear was never seen in the detergent soluble fraction.
Background: Immunoblotting shows a protein as a band on a membrane.

Data set [3] relates to ataxin-1 [92Q] nuclear aggregates in HeLa cells. The experiment in a line: Ataxin-1 aggregate formation in HeLa cells cotransfected with ataxin-1 [92Q] and HDJ-2/HSDJ constructs. The source says:
Full-length human HDJ-2/HSDJ and HDJ-2/HSDJ mutants Δ250 (deletion of aa 9-46) and Δ450 (deletion of aa9-107)^32 were subcloned in frame into the pFLAG-CMV-2vector (Kodak). The primers HDJ2-FOR (5′-[…]-3′) and HDJ2-REV (5′-[…]-3′) were used to PCR amplify the 5′ end of HDJ-2/HSDJ containing an inframe Not I site. The PCR product was cut with Notl and EcoRl and subcloned into pFLAG-CMV-2. This construct was digested with EcoRl and Xbal to insert the 3′ HDJ-2/HSDJ EcoRl/Xbal sequence. The constructs were confirmed by DNA sequence analysis.
Transient expression of ataxin-1 and HDJ-2/HSDJ in COS7 and HeLa cells was accomplished by transfection with Lipofectamine™ Reagent (Life technologies, Inc.) in 35 mm tissue culture plates containing sterile coverslips. Forty-eight hours after transfection, cells were fixed at 4° C. for 30 min in 4% formaldehyde in PEM (80 mM K-PIPES, pH 6.8, 5 mM EGTA pH 7.0, 2 mM MgCl2), quenched in 1 mg/ml NaBH4 in PEM, and permeabilized for 30 min in 0.5% Triton X-100 in PEM. The coverslips were blocked for 1 hour at room temperature (RT) in 5% non-fat dry milk (Bio-Rad) in 50 mM Tris-HCl pH 7.5, 150 mM NaCl, 0.05% Tween20 (TBS-T), then incubated for 60 min at RT with rabbit polyclonal antibodies (1:1000) recognizing ataxin-1 (11750VII)^44. […] Hsp70 was detected with mouse monoclonal anti-Hsp70 (1:500) (StressGen). Endogenous HDJ-2/HSDJ was detected with mouse monoclonal anti-HDJ-2/DNAJ (1:200) (Neomarkers). The 20S proteasome was visualized with rabbit polyclonal anti-20S proteasome^43 (1:500) and ataxin-1 colocalization was detected using mouse monoclonal anti-Xpress (1:1000) recognizing the Xpress epitope in pcDNA 3.1 (Invitrogen). […]
Duplicate slides were graded blindly in two independent trials. […] Frequency of aggregate formation was computed for two independent experiments and expressed as the mean±s.e.m. […]
The ability of HDJ-2/HSDJ to function as a molecular chaperone and moderate ataxin-1 aggregation in HeLa cells was tested. […] HDJ-2/HSDJ was overexpressed by transfection in HeLa cells and the cells analyzed for the staining pattern of ataxin-1. […]

`CC(C)[C@H](O)[C@@]12NC(=O)[C@H](C)[C@@H]1OC2=O` [β-lactone, clasto-Lactacystin β-lactone]: in data set [1], the “distribution of cells containing large aggregates compared to controls” value is reported as “dramatically increased”. Besides, in data set [1] (mock treated 71%), the “percentage of cells aggregate positive” value came out at 97%. For the same molecule, in data set [2], the “steady-state level of detergent soluble form of ataxin-1” value is “unchanged” and the “steady-state level of detergent-insoluble form of ataxin-1” value was “marked accumulation”.
“HDJ-2/HSDJ: full-length human DnaJ (Hsp40) homolog molecular chaperone, overexpressed by transfection (pFLAG-CMV-2)”: the “change in frequency of ataxin-1 aggregation versus vector control” value in data set [3] (HeLa cells cotransfected with ataxin-1, ANOVA F=24.5, p=0.0002) is listed as “significant decrease”. In addition, the “distribution of ataxin-1 staining pattern (diffuse/micropunctate versus large aggregates)” value in data set [3] (HeLa cells cotransfected with ataxin-1, ANOVA F=36.4, p<0.001) is reported as “more cells have diffuse/micropunctate nuclear staining pattern, than large nuclear aggregates”. Further, in data set [3] (HeLa cells cotransfected with ataxin-1 [92Q], vector control approximately 70%), the “percentage of cells with nuclear aggregates (aggregate-positive)” value is “less than 40%”.
